Literature values in paper PMC7134594 (Chemistry & Biology, 2004).

Test system: SARS-CoV

SMILES | inhibiting replication of SARS-CoV in vitro | other results
Cc1cccc(C)c1OCC(=O)N[C@@H](Cc1ccccc1)[C@@H](O)C[C@H](Cc1ccccc1)NC(=O)[C@H](C(C)C)N1CCCNC1=O [lopinavir] | ineffective | 
Cc1c(O)cccc1C(=O)N[C@@H](CSc1ccccc1)[C@H](O)CN1C[C@H]2CCCC[C@H]2C[C@H]1C(=O)NC(C)(C)C [nelfinavir] |  | EC50 (read-out: EC50, inhibition of SARS-CoV replication): 48 nM
CC(C)(C)NC(=O)[C@@H]1C[C@@H]2CCCC[C@@H]2CN1C[C@@H](O)[C@H](Cc1ccccc1)NC(=O)[C@H](CC(N)=O)NC(=O)c1ccc2ccccc2n1 [saquinavir] | ineffective | 
CC(C)c1nc(CN(C)C(=O)N[C@H](C(=O)N[C@@H](Cc2ccccc2)C[C@H](O)[C@H](Cc2ccccc2)NC(=O)OCc2cncs2)C(C)C)cs1 [ritonavir] | ineffective | 
CC(C)(C)NC(=O)[C@@H]1CN(Cc2cccnc2)CCN1C[C@@H](O)C[C@@H](Cc1ccccc1)C(=O)N[C@H]1c2ccccc2C[C@H]1O [indinavir] | ineffective | 
CSC[C@H](NC(=O)COc1cccc2cnccc12)C(=O)N[C@@H](Cc1ccccc1)[C@H](O)C(=O)N1CSC[C@H]1C(=O)NC(C)(C)C [KNI-272] | ineffective | 
NC(=O)c1ncn([C@@H]2O[C@H](CO)[C@@H](O)[C@H]2O)n1 [Ribavirin, ribavirin] |  | anti-SARS-CoV activity in vitro: anti-SARS-CoV activity in vitro, but at concentrations that are cytotoxic
